Earlier results, collected in patent publication US20050261335A1, “Carvedilol formulations” (priority 2002, published 2005).
Like-named read-outs stand apart in the source and are kept apart here.

For `COc1ccccc1OCCNCC(O)COc1cccc2[nH]c3ccccc3c12` (racemic) [Carvedilol], the solubility (above pH 9.0) is listed as under 1 µg/mL, the saturation solubility (pH 5, room temperature) is listed as about 100 µg/mL and the saturation solubility (pH 7, room temperature) is listed as about 23 µg/mL.
